Results on 37 compounds are retold here after patent US11186577B2, “Vasopressin receptor antagonists and products and methods related thereto” (BlackThorn Therapeutics, Inc., priority 2017, dated 2021).

The target of test [1] is human Arginine Vasopressin Receptor 1b (AVPR1b) (Homo sapiens (Human), UniProt P47901). Kind of test: Vasopressin V1B receptor antagonist assay (AVP-evoked calcium, FLIPR, CHO-AVPR1b cells). It is filed as cell-based. As to the method: The purpose of the assay is to determine the inhibitory effect of synthesized compounds on the Vasopressin V1b receptor. The assay was performed in Chinese Hamster Ovary (CHO) cells expressing the human Arginine Vasopressin Receptor 1b (AVPR1b). Arginine Vasopressin (AVP) evokes an increase in intracellular calcium in CHO-AVPR1b cells which is measured in a fluorescence assay on the FLIPR^TETRA using calcium sensitive dyes. Test compounds were assessed for their ability to affect the magnitude of the response to AVP, with antagonists showing a concentration-dependent reduction in the AVP-mediated fluorescence.
CHO-AVPR1b cells were maintained in routine culture in T175 Flasks at 37° C., 5% CO2. The growth medium consisted of Ham's F12 media supplemented with 10% v/v fetal bovine serum, 1× non-essential amino acids, and 0.4 mg/ml Geneticin G418.
Cells were harvested from T175 flasks when they were 80-90% confluent by first washing the cell monolayer with PBS and then dissociated using trypsin 0.05%/EDTA (3 mL for a T175 Flask). The flasks were incubated at room temperature until the cells detached. To the cell suspension, 10 ml of growth media was added and the cell density determined using the Vi-Cell automated cell counter. The cells were spun at 1000 rpm for 3 minutes, then the supernatant was carefully removed and discarded. The cell pellet was re-suspended at 6.0e^5 cells/ml in growth media. 25 μL of cells in growth media was dispensed into each well (15,000 cells per well) of a poly-D-lysine coated black, clear bottomed, 384-well plate. The plates were incubated at 37° C., 5% CO2 overnight.
At the start of each assay day, the potency of AVP is assessed and an EC80 concentration determined for subsequent compound profiling. Assays were performed using a two-step addition protocol on the FLIPR^TETRA; first addition of 5 μl of control or test compound at 10× final in assay buffer with 15 min incubation at 37° C., 5% CO2 followed by 10 μl of AVP at 6× final concentration in assay buffer. Changes in fluorescence were monitored for 3 min after both additions on the FLIPR^TETRA using 470-495 nm excitation and 515-575 nm emission wavelengths. The assay buffer consisted of HBSS (+Ca/+Mg) supplemented with 20 mM HEPES, and for the preparation of the AVP agonist only, 0.1% w/v bovine serum albumin. The assay was initiated by the removal of growth media from the cells and replacement with 45 μl of Calcium-6 dye (Molecular Devices) prepared at 1× in assay buffer. Cells were loaded with dye for 60-90 min at 37° C., 5% CO2 before initiation of the FLIPR^TETRA protocol. […] For compound profiling, test compounds were first serially diluted in DMSO (10-point curve, 1:3 dilutions) then diluted 33.3-fold in assay buffer prior to addition to the dye loaded cells on the FLIPR^TETRA. At the end of the incubation period 10 μl of AVP in assay buffer containing 0.1% BSA was added at the previously determined EC80 concentration.
In-plate controls for the assay include a Nelivaptan concentration-response curve as the reference V1b antagonist and an AVP concentration-response curve to confirm the reproducibility of the EC80 used for the compound challenge.

Test [2] concerns the target human Arginine Vasopressin Receptor 1a (AVPR1a) (Homo sapiens (Human), UniProt P37288). Kind of test: Vasopressin V1A receptor antagonist assay (AVP-evoked calcium, FLIPR, CHO-AVPR1a cells). The conditions noted are these: read-out: V1a IC50. It is filed as cell-based. In a few lines: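 CHO cells expressing human AVPR1a, Calcium-6 dye loaded 60-90 min, preincubated with compound 15 min at 37° C., then challenged with AVP at its daily-determined EC80. FLIPR fluorescence; 10-point 1:3 series from 3 μM, duplicates.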

Sequence of human Arginine Vasopressin Receptor 1a (AVPR1a) (P37288 whole entry): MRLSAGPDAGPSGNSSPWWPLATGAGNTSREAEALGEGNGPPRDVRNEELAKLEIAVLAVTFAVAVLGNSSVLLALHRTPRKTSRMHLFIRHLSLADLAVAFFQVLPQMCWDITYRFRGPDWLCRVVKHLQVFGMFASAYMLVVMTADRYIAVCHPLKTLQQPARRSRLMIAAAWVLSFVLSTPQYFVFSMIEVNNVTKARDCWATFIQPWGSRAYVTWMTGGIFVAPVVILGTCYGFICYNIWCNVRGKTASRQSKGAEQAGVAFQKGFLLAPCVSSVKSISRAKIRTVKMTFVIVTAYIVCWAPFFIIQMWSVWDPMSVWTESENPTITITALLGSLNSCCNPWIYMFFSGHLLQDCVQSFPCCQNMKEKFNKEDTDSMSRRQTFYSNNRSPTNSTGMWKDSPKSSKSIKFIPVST
Sequence of human Arginine Vasopressin Receptor 1b (AVPR1b) (P47901 whole entry): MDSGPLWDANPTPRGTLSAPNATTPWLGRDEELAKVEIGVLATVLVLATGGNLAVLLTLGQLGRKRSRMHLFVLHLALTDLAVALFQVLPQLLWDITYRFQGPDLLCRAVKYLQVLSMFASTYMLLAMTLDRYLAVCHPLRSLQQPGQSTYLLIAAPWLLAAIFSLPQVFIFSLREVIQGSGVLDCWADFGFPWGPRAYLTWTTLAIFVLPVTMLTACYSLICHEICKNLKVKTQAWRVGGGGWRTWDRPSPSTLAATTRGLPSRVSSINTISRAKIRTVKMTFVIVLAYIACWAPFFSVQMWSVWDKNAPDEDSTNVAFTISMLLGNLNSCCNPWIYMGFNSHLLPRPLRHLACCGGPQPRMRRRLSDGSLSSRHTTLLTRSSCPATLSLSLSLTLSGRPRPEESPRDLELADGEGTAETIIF

As for `CN1Cc2cc(Cl)ccc2-n2c(nnc2C2CC3(C2)CN(C(=O)C2CC2)C3)C1` [compound 28], the IC50 was above 1000 nM in test [1] and below 100 nM in test [2].

Regarding `CCOC(=O)N1Cc2cc(Cl)ccc2-n2c(C3CC4(C3)CN(c3ccc(F)cn3)C4)nnc2C1C` (centres unmarked) [compound 169], the values for the IC50 in test [1] and in test [2] were above 1000 nM and below 100 nM, respectively.

Regarding `CC(C)N1Cc2cc(Cl)ccc2-n2c(nnc2C2CC3(C2)CN(c2ccc(F)cn2)C3)C1` [compound 50], the IC50 in test [1] is above 1000 nM; in test [2] it was below 100 nM.

`CC(C)OC(=O)N1Cc2cc(Cl)ccc2-n2c(nnc2C2CC3(C2)CN(C(=O)C2CC2)C3)C1` [compound 153]: the half-inhibitory concentration (IC50) is above 1000 nM in test [1] and below 100 nM in test [2].

As for `CC1c2nnc(C3CC4(C3)CN(c3ncccn3)C4)n2-c2ccc(Cl)cc2CN1C(=O)OC1CC1` (single isomer, unassigned) [Cpd 171B], the IC50 in test [1] was above 1000 nM; in test [2], 500 to 1000 nM.

With `CCOC(=O)N1Cc2cc(Cl)ccc2-n2c(C3CC4(C3)CN(c3ccc(F)cn3)C4)nnc2C1C` (single isomer, unassigned) [Cpd 169A], the IC50 is above 1000 nM in test [1] and below 100 nM in test [2].

Regarding `CN1Cc2cc(Cl)ccc2-n2c(nnc2C2CC3(C2)CN(c2cccc(F)n2)C3)C1` [compound 8], the IC50 in test [1] was above 1000 nM; in test [2], below 100 nM.

`CC1c2nnc(C3CC4(C3)CN(c3ncc(F)cn3)C4)n2-c2ccc(Cl)cc2CN1C(=O)OC1(C)CC1` (centres unmarked) [compound 173]: the IC50 in test [1] was above 1000 nM; in test [2], below 100 nM.

With `CCC(=O)N1Cc2cc(Cl)ccc2-n2c(nnc2C2CC3(C2)CN(c2ccc(F)cn2)C3)C1` [compound 72], the results for the IC50 in test [1] and in test [2] were above 1000 nM and below 100 nM, respectively.

As for `CC(C)C(=O)N1Cc2cc(Cl)ccc2-n2c(nnc2C2CC3(C2)CN(c2ccc(F)cn2)C3)C1` [compound 63], the half-inhibitory concentration (IC50) in test [1] was above 1000 nM; in test [2], below 100 nM.

In the case of `CCOC(=O)N1Cc2cc(Cl)ccc2-n2c(C3CC4(C3)CN(c3ncc(F)cn3)C4)nnc2C1C` (centres unmarked) [compound 172], the IC50 is above 1000 nM in test [1] and below 100 nM in test [2].

Regarding `CN1Cc2cc(Cl)ccc2-n2c(nnc2C2CC3(C2)CN(c2ncccc2F)C3)C1` [compound 4], the figures for the IC50 in test [1] and in test [2] were above 1000 nM and below 100 nM, respectively.

For the compound `CC1c2nnc(C3CC4(C3)CN(c3ccc(F)cn3)C4)n2-c2ccc(Cl)cc2CN1C(=O)C(C)(C)F` (single isomer, unassigned) [Cpd 178A], the IC50 was above 1000 nM in test [1] and below 100 nM in test [2].

Regarding `COC(=O)N1Cc2cc(Cl)ccc2-n2c(C3CC4(C3)CN(c3ccc(F)cn3)C4)nnc2C1C` (centres unmarked) [compound 142, methyl 8-chloro-1-(2-(5-fluoropyridin-2-yl)-2-azaspiro[3.3]heptan-6-yl)-4-methyl-4H-benzo[f][1,2,4]triazolo[4,3-a][1,4]diazepine-5(6H)-carboxylate], the IC50 in test [1] is above 1000 nM; in test [2] it was below 100 nM.

For the compound `CC1c2nnc(C3CC4(C3)CN(c3ccc(F)cn3)C4)n2-c2ccc(Cl)cc2CN1C(=O)C1(F)CC1` (centres unmarked) [compound 174], the IC50 in test [1] is above 1000 nM; in test [2], below 100 nM.

Take `CC(CF)N1Cc2cc(Cl)ccc2-n2c(nnc2C2CC3(C2)CN(c2ccccn2)C3)C1` (centres unmarked) [compound 58]: the values for the IC50 in test [1] and in test [2] were above 1000 nM and below 100 nM, respectively.

Regarding `CCOC(=O)N1Cc2cc(Cl)ccc2-n2c(nnc2C2CC3(C2)CN(c2ccc(F)cn2)C3)C1` [compound 69], the IC50 in test [1] was above 1000 nM; in test [2], below 100 nM.

In the case of `FC(F)CN1Cc2cc(Cl)ccc2-n2c(nnc2C2CC3(C2)CN(c2ccccn2)C3)C1` [compound 52], the 50% inhibitory concentration (IC50) was above 1000 nM in test [1] and below 100 nM in test [2].

As to `COCCN1Cc2cc(Cl)ccc2-n2c(nnc2C2CC3(C2)CN(c2ccccn2)C3)C1` [compound 39, 8-chloro-5-(2-methoxyethyl)-1-(2-(pyridin-2-yl)-2-azaspiro[3.3]heptan-6-yl)-5,6-dihydro-4H-benzo[f][1,2,4]triazolo[4,3-a][1,4]diazepine], the IC50 was above 1000 nM in test [1] and below 100 nM in test [2].

On to `CC1c2nnc(C3CC4(C3)CN(c3ccccn3)C4)n2-c2ccc(Cl)cc2CN1C(=O)C1(F)CC1` (single isomer, unassigned) [Cpd 181A], for which the figures for the IC50 in test [1] and in test [2] were above 1000 nM and below 100 nM, respectively.

As to `O=C(C(F)F)N1Cc2cc(Cl)ccc2-n2c(nnc2C2CC3(C2)CN(c2ccccn2)C3)C1` [compound 122], the values for the IC50 in test [1] and in test [2] were above 1000 nM and below 100 nM, respectively.

Take `CC(C)OC(=O)N1Cc2cc(Cl)ccc2-n2c(C3CC4(C3)CN(c3ncc(F)cn3)C4)nnc2C1C` (single isomer, unassigned) [Cpd 201A]: the IC50 in test [1] was above 1000 nM; in test [2] it was below 100 nM.

On to `CC1c2nnc(C3CC4(C3)CN(c3ccc(F)cn3)C4)n2-c2ccc(Cl)cc2CN1C` (single isomer, unassigned) [Cpd 179A], for which the IC50 in test [1] is above 1000 nM; in test [2], below 100 nM.

For the compound `CC1c2nnc(C3CC4(C3)CN(c3cnccn3)C4)n2-c2ccc(Cl)cc2CN1C(=O)C1(F)CC1` (centres unmarked) [compound 177], the IC50 in test [1] is above 1000 nM; in test [2], below 100 nM.

On to `CC(CF)OC(=O)N1Cc2cc(Cl)ccc2-n2c(nnc2C2CC3(C2)CN(c2ccc(F)cn2)C3)C1` (centres unmarked) [compound 78], for which the IC50 is above 1000 nM in test [1] and below 100 nM in test [2].

For the compound `CC1c2nnc(C3CC4(C3)CN(c3ncccn3)C4)n2-c2ccc(Cl)cc2CN1C(=O)C1(F)CC1` (centres unmarked) [compound 175], the IC50 in test [1] was above 1000 nM; in test [2] it was below 100 nM.

As to `COC(=O)N1Cc2cc(Cl)ccc2-n2c(C3CC4(C3)CN(c3ncccn3)C4)nnc2C1C` (single isomer, unassigned) [Cpd 166A], the IC50 in test [1] is above 1000 nM; in test [2], below 100 nM.

Consider `CC1c2nnc(C3CC4(C3)CN(c3ncc(F)cn3)C4)n2-c2ccc(Cl)cc2CN1C(=O)OC(CF)CF` (centres unmarked) [compound 194], for which the values for the IC50 in test [1] and in test [2] were above 1000 nM and below 100 nM, respectively.

Consider `CN1Cc2cc(Cl)ccc2-n2c(nnc2C2CC3(C2)CN(c2cnccn2)C3)C1` [compound 3], for which the figures for the IC50 in test [1] and in test [2] were above 1000 nM and below 100 nM, respectively.

`CC(C)OC(=O)N1Cc2cc(Cl)ccc2-n2c(C3CC4(C3)CN(c3cnccn3)C4)nnc2C1C` (centres unmarked) [compound 164]: the IC50 was above 1000 nM in test [1] and below 100 nM in test [2].

In the case of `CC(C)OC(=O)N1Cc2cc(Cl)ccc2-n2c(C3CC4(C3)CN(c3ncccn3)C4)nnc2C1C` (single isomer, unassigned) [Cpd 167A], the half-maximal inhibitory concentration (IC50) in test [1] was above 1000 nM; in test [2] it was 100 to 500 nM.

`O=C(OC1CC1)N1Cc2cc(Cl)ccc2-n2c(nnc2C2CC3(C2)CN(c2ccc(F)cn2)C3)C1` [compound 90]: the IC50 in test [1] was above 1000 nM; in test [2] it was below 100 nM.

For `O=C(C(F)F)N1Cc2cc(Cl)ccc2-n2c(nnc2C2CC3(C2)CN(C(=O)C2(F)CC2)C3)C1` [compound 134], the IC50 is above 1000 nM in test [1] and below 100 nM in test [2].

With `Clc1ccc2c(c1)CN(C1CC1)Cc1nnc(C3CC4(C3)CN(c3ccccn3)C4)n1-2` [compound 56], the IC50 in test [1] is above 1000 nM; in test [2], below 100 nM.

On to `CCN1Cc2cc(Cl)ccc2-n2c(nnc2C2CC3(C2)CN(c2cnccn2)C3)C1` [compound 46], for which the IC50 is above 1000 nM in test [1] and below 100 nM in test [2].

Regarding `CC1c2nnc(C3CC4(C3)CN(c3ncccn3)C4)n2-c2ccc(Cl)cc2CN1C(=O)OC1CC1` (single isomer, unassigned) [Cpd 171A], the IC50 in test [1] is above 1000 nM; in test [2] it was below 100 nM.

For the compound `CC1c2nnc(C3CC4(C3)CN(c3ccc(F)cn3)C4)n2-c2ccc(Cl)cc2CN1C(=O)OC(CF)CF` (single isomer, unassigned) [Cpd 203A], the IC50 is above 1000 nM in test [1] and below 100 nM in test [2].
